Assay [1] deals with T1, CB1 receptor (Rattus norvegicus, UniProt P20272).
T1 construct: membranes were prepared from rat forebrain membranes; from tissue; host or cells: rat forebrain
Kind of assay: CB1 receptor binding, [3H] CP-55,940 displacement, rat forebrain membranes. Particulars: for Ki: rat forebrain membranes, 0.8 nM [3H] CP-55,940, read-out: Kl CB1; for selectivity for the CB1 receptor: binding selectivity CB1 versus CB2, from the results in the TABLES. The procedure:
(§1) The materials were tested for CB2 receptor binding affinity and for CB1 receptor affinity (to determine selectivity for the CB2 receptor). As used herein, “binding affinity” is represented by the IC50 value which is the concentration of an analog required to occupy the 50% of the total number (Bmax) of the receptors. The lower the IC50 value the higher the binding affinity.
For the CB1 receptor binding studies, membranes were prepared from rat forebrain membranes according to the procedure of P. R. Dodd et al, A Rapid Method for Preparing Synaptosomes: Comparison with Alternative Procedures, Brain Res., 107–118 (1981). The binding of the novel analogues to the CB1 cannabinoid receptor was assessed as described in W. A. Devane et al, Determination and Characterization of a Cannabinoid Receptor in a Rat Brain, Mol. Pharmacol., 34, 605–613 (1988) and A. Charalambous et al, 5′-azido Δ^8 THC: A Novel Photoaffinity Label for the Cannabinoid Receptor, J. Med. Chem., 35, 3076–3079 (1992) with the following changes. The above articles are incorporated by reference herein.
Membranes, previously frozen at −80° C., were thawed on ice. To the stirred suspension was added three volumes of TME (25 mM Tris-HCl buffer, 5 mM MgCl2 and 1 mM EDTA) at a pH 7.4. The suspension was incubated at 4° C. for 30 min. At the end of the incubation, the membranes were pelleted and washed three times with TME.
(§2) The treated membranes were subsequently used in the binding assay described below. Approximately 30 μg of membranes were incubated in silanized 96-well microtiter plate with TME containing 0.1% essentially fatty acid-free bovine serum albumin (BSA), 0.8 nM [^3H] CP-55,940, and various concentrations of test materials at […] for 1 hour. The samples were filtered using Packard Filtermate 196 and Whatman GF/C filterplates and washed with wash buffer (TME) containing 0.5% BSA. Radioactivity was detected using MicroScint 20 scintillation cocktail added directly to the dried filterplates, and the filterplates were counted using a Packard Instruments Top-Count. Nonspecific binding was assessed using 100 nM CP-55,940. Data collected from three independent experiments performed with duplicate determinations was normalized between 100% and 0% specific binding for [^3H] CP-55,940, determined using buffer and 100 nM CP-55,940. The normalized data was analyzed using a 4-parameter nonlinear logistic equation to yield IC50 values. Data from at least two independent experiments performed in duplicate was used to calculate IC50 values which were converted to Ki values using the assumptions of Cheng et al, Relationship Between the Inhibition Constant (Ki) and the concentration of Inhibitor which causes 50% Inhibition (IC50) of an Enzymatic Reaction, Biochem. Pharmacol., 22, 3099–3102, (1973), which is incorporated by reference herein.

The target of assay [2] is T2, CB2 receptor (Mus musculus, UniProt P47936).
T2 construct: membranes were prepared from frozen mouse spleen; from tissue; host or cells: mouse spleen
Kind of assay: CB2 receptor binding, [3H] CP-55,940 displacement, mouse spleen membranes. Conditions: for Ki: mouse spleen membranes, [3H] CP-55,940, read-out: Kl CB2 (converted); for selectivity for the CB2 receptor: binding selectivity CB2 versus CB1, from the results in the TABLES. The procedure:
as §1, §2
For the CB2 receptor binding studies, membranes were prepared from frozen mouse spleen essentially according to the procedure of P. R. Dodd et al, A Rapid Method for Preparing Synaptosomes: Comparison with Alternative Procedures, Brain Res., 226, 107–118 (1981) which is incorporated by reference herein. Silanized centrifuge tubes were used throughout to minimize receptor loss due to adsorption. The CB2 binding assay was conducted in the same manner as for the CB1 binding assay. The binding affinities (Ki) were also expressed in nanomoles (nM).

SMILES strings stand for the structures. Where two headings read alike, the source gives them in different places.

T2 sequence (P47936 whole entry): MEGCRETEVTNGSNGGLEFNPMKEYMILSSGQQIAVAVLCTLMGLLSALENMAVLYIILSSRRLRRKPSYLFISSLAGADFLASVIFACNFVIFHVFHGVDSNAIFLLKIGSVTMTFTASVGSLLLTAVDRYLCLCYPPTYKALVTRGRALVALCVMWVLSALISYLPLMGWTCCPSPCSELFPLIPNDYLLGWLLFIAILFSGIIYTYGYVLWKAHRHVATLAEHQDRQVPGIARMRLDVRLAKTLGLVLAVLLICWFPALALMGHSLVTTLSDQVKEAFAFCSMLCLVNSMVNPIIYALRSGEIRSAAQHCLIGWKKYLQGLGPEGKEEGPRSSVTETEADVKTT
T1 sequence (P20272 whole entry): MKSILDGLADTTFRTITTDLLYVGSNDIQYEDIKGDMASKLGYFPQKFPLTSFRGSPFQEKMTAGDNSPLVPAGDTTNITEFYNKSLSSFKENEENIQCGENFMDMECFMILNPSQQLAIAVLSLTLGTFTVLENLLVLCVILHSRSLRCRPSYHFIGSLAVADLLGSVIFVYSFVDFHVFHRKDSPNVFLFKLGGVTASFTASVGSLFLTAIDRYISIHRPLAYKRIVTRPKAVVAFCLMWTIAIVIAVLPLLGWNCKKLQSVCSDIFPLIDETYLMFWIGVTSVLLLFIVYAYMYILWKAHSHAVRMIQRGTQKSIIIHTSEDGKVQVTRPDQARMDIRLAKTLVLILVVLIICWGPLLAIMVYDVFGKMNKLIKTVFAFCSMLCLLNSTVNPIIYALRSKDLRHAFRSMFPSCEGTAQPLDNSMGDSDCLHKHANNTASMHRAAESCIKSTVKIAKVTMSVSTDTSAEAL

Turning to `CCCCCn1c(C)c(C(=O)c2ccc(N(C)C)c3ccccc23)c2ccccc21` [AM1256], the results for the Ki in assay [1] (TABLE 2) and in assay [2] (TABLE 2) were 0.00474 µM and 0.0186 µM, respectively.
Turning to `CC(=O)OCCCCn1cc(C(=O)c2cccc3ccccc23)c2ccccc21` [AM1282], the Ki in assay [1] (TABLE 2) is 0.133 µM; in assay [2] (TABLE 2), 0.101 µM.
For `O=C(c1cccc2ccccc12)c1cn(CCCCO)c2ccccc12` [AM1283], in that order: 0.117 µM and 0.197 µM.
As to `CC(=O)OCCCn1cc(C(=O)c2cccc3ccccc23)c2ccccc21` [AM1284], the results for the Ki in assay [1] (TABLE 2) and in assay [2] (TABLE 2) were 0.127 µM and 0.103 µM, respectively.
Consider `Cc1ccc(S(=O)(=O)OCCCCn2cc(C(=O)c3cccc4ccccc34)c3ccccc32)cc1` [AM1286], for which the Ki is 1.51 µM in assay [1] (TABLE 2) and 1.29 µM in assay [2] (TABLE 2).
In the case of `O=C(c1cccc2ccccc12)c1cn(CCCCI)c2ccccc12` [AM1288], the Ki in assay [1] (TABLE 2) is 0.0013 µM; in assay [2] (TABLE 2), 0.0105 µM. Moreover, the “selectivity for the CB1 receptor” value in assay [1] is reported as “high selectivity for the CB1 receptor”.
Regarding `Cc1ccc(S(=O)(=O)OCCCn2cc(C(=O)c3cccc4ccccc34)c3ccccc32)cc1` [AM1289], the values for the Ki in assay [1] (TABLE 2) and in assay [2] (TABLE 2) were 0.36 µM and 0.0786 µM, respectively. For the same compound, in assay [2], the “selectivity for the CB2 receptor” value is “high selectivity for the CB2 receptor”.
Take `O=C(c1cccc2ccccc12)c1cn(CCCCN=C=S)c2ccccc12` [AM1291]: the figures for the Ki in assay [1] (TABLE 2) and in assay [2] (TABLE 2) were 2.96 µM and 1.8 µM, respectively.
For `O=C(c1cccc2ccccc12)c1cn(CCCI)c2ccccc12` [AM1292], in that order: 0.0031 µM and 0.0181 µM.
In the same order, the values of `O=C(c1cccc2ccccc12)c1cn(CCCN=C=S)c2ccccc12` [AM1294] are 0.283 µM and 0.237 µM.
`O=C(c1cccc2ccccc12)c1cn(CCCCF)c2ccccc12` [AM1295]: the figures for the Ki in assay [1] (TABLE 2) and in assay [2] (TABLE 2) were 0.0025 µM and 0.0307 µM, respectively. The “selectivity for the CB1 receptor” value in assay [1] was “high selectivity for the CB1 receptor”.
On to `CN1CCCCC1Cn1cc(C(=O)c2cccc3ccccc23)c2ccccc21` (stereo not shown) [AM1296], for which the Ki in assay [1] (TABLE 1, racemic samples) is 0.00757 µM; in assay [2] (TABLE 1, racemic samples), 0.00388 µM.
In the same order, the values of `CN1CCCCC1Cn1cc(C(=O)c2ccc([N+](=O)[O-])c3ccccc23)c2ccccc21` (stereo not shown) [AM1299] are 0.0124 µM and 0.0135 µM.
In the case of `O=C(c1cccc2ccccc12)c1cn(CCCCCF)c2ccccc12` [AM2201], the Ki in assay [1] (TABLE 2) is 0.001 µM; in assay [2] (TABLE 2), 0.0026 µM.
With `O=C(c1cccc2ccccc12)c1cn(CCCCCO)c2ccccc12` [AM2202], the Ki in assay [1] (TABLE 2) was 0.0331 µM; in assay [2] (TABLE 2) it was 0.111 µM.
For `O=C(c1cccc2ccccc12)c1cn(CCCCCI)c2ccccc12` [AM2203], in that order: 0.0078 µM and 0.0458 µM.
For `O=C(c1cccc2ccccc12)c1cn(CCCCCN=C=S)c2ccccc12` [AM2204], in that order: 0.0075 µM and 0.0244 µM.
In the same order, the values of `O=C(c1ccc([N+](=O)[O-])c2ccccc12)c1cn(CCCCI)c2ccccc12` [AM2210] are 0.0018 µM and 0.0113 µM.
For the compound `[N-]=[N+]=Nc1ccc(C(=O)c2cn(CCCCI)c3ccccc23)c2ccccc12` [AM2213], the values for the Ki in assay [1] (TABLE 2) and in assay [2] (TABLE 2) were 0.003 µM and 0.03 µM, respectively.
For `O=C(c1ccc(N=C=S)c2ccccc12)c1cn(CCCCI)c2ccccc12` [AM2216], in that order: 0.0424 µM and 0.213 µM.
For `Cc1c(C(=O)c2ccccc2I)c2ccccc2n1CCCCCF` [AM2225], in that order: 0.00597 µM and 0.0038 µM.
In the same order, the values of `Cc1ccc(S(=O)(=O)OCCCCCn2c(C)c(C(=O)c3ccccc3I)c3ccccc32)cc1` [AM2227] are 1.02 µM and 2.97 µM.
`Cc1c(C(=O)c2ccccc2I)c2ccccc2n1CCCCCI` [AM2229]: the Ki in assay [1] (TABLE 2) is 0.117 µM; in assay [2] (TABLE 2), 0.0462 µM.
`Cc1c(C(=O)c2ccccc2I)c2ccccc2n1CCCCCN=C=S` [AM2230]: the Ki in assay [1] (TABLE 2) is 0.195 µM; in assay [2] (TABLE 2), 0.0295 µM. Moreover, the “selectivity for the CB2 receptor” value in assay [2] is listed as “high selectivity for the CB2 receptor”.
For `N#CCCCCn1cc(C(=O)c2cccc3ccccc23)c2ccc([N+](=O)[O-])cc21` [AM2231], the Ki in assay [1] (TABLE 2) was 0.0049 µM; in assay [2] (TABLE 2), 0.0239 µM.
In the same order, the values of `N#CCCCCn1cc(C(=O)c2cccc3ccccc23)c2ccccc21` [AM2232] are 0.00028 µM and 0.00148 µM.
`O=C(c1cccc2ccccc12)c1cn(CCCCCF)c2cc(I)ccc12` [Am1230]: the results for the Ki in assay [1] (TABLE 2) and in assay [2] (TABLE 2) were 0.0011 µM and 0.0024 µM, respectively.

The values above are taken from patent publication US7241799B2, “Cannabimimetic indole derivatives” (University of Connecticut, priority 1999, dated 2007).
